Patent US20110224213A1, “Use of Glutaric Acid Derivatives or the Pharmaceutically Acceptable Salts Thereof as Anti-Arrhythmic Agents” (priority 2008, published 2011)
Where two headings read alike, the source gives them in different places. Marks after values point to notes of the source that are not given here.

How the values were obtained:
[1] = test system: occlusive arrhythmia in cats; test: Early occlusive arrhythmia in cats (coronary artery ligation); conditions: for Animals died in group / Animals with ventricular arrhythmia (%) / Number of animals with ventricular arrhythmia / Time of occurrence of arrhythmia: intravenously
[2] = LD50 upon oral administration in mice; conditions: mouse, in vivo, per/os
Method: (§1) This model makes it possible to assess the scope of the therapeutic action of the presented compounds and the N-succinyl-D,L-tryptophane dipotassium salt. Assessment of the scope of the therapeutic action was carried out in accordance with the value of the anti-arrhythmic index (AAI), determined as the ratio LD50 upon the oral method of administering to ED50 on an aconitic model of arrhythmia.

[3] = test system: adrenal arrhythmia in mice; type: in vivo; conditions: mice, introduced internally
[4] = test system: aconitic arrhythmia in mice; test: animal or person; type: in vivo
Method: Arrhythmia was reproduced according to the method of Ju. I. Vikhlyayev and N. V. Kaverina (1958) [Kaverina N. V., Berdyaev S. Ju., Kuschuk E. P., Paskhina O. E. Methodical indications in respect to a study of the anti-arrhythmic activity of new pharmacological substances. Manual on experimental (pre-clinical) study of new pharmacological substances. Edited by V. P. Fisenko.—Moscow. 2000. Page 210]. Aconitine nitrate was administered to the animals in a dose of 50 μg/kg intravenously.
as §1

O=C(O)CCCC(=O)N[C@@H](Cc1c[nH]cn1)C(=O)O [Compound III, N^α-glutaryl-L-histidine]
effect on experimental lethality ([1]; 23% lethality in the control): prevented experimental lethality
Animals died in group ([1]; dose 0.05 mg/kg): 0
Animals with ventricular arrhythmia (%) ([1]; dose 0.05 mg/kg): 25%
Number of animals with ventricular arrhythmia ([1]; dose 0.05 mg/kg): 2
Time of occurrence of arrhythmia ([1]; dose 0.05 mg/kg): 18 ± 2 min
Animals died in group ([1]; dose 0.5 mg/kg): 0
Animals with ventricular arrhythmia (%) ([1]; dose 0.5 mg/kg): 17%
Number of animals with ventricular arrhythmia ([1]; dose 0.5 mg/kg): 1
Time of occurrence of arrhythmia ([1]; dose 0.5 mg/kg): 18 min
anti-arrhythmic effect ([1]; dose of 0.05 mg/kg, intravenous): had reliable activity
LD50 [2]: 4500 mg/kg
effect on life span of the test animals ([3]; 0.05 and 0.5 mg/kg): effectively increased the life span
Animals lethal (%) ([3]; dose 0.05 mg/kg): (86%)
Animals with AV blockage (%) ([3]; dose 0.05 mg/kg): (29%)
Animals with ventricular arrhythmia (%) ([3]; dose 0.05 mg/kg): (43%)
Lifetime ([3]; dose 0.05 mg/kg): 32 ± 7 min
Number of animals in groups lethal ([3]; dose 0.05 mg/kg): 12
Number of animals in groups with AV blockage ([3]; dose 0.05 mg/kg): 4*
Number of animals in groups with ventricular arrhythmia ([3]; dose 0.05 mg/kg): 6*
Animals lethal (%) ([3]; dose 0.5 mg/kg): (79%)
Animals with AV blockage (%) ([3]; dose 0.5 mg/kg): (21%)
Animals with ventricular arrhythmia (%) ([3]; dose 0.5 mg/kg): (29%)
Lifetime ([3]; dose 0.5 mg/kg): 33 ± 5 min
Number of animals in groups lethal ([3]; dose 0.5 mg/kg): 11
Number of animals in groups with AV blockage ([3]; dose 0.5 mg/kg): 3*
Number of animals in groups with ventricular arrhythmia ([3]; dose 0.5 mg/kg): 4*
ED50 ([4]; Mus musculus, iv): 0.185 ± 0.083 mg/kg
prevention of atrioventricular heart arrhythmia caused by aconitine nitrate ([4]; mice, administration internally): effectively prevents atrioventricular heart arrhythmia
